Assays:
Assay in all cases: Test C preemergence
Type in all cases: in vivo
[1] = test system: blackgrass (Alopecurus myosuroides); conditions: Alopecurus myosuroides, pre-emergence, 336 h, scale 0 to 100, read-out: Plant response rating, Blackgrass
Outline: (§1)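 After preemergence treatment of seeds in loam-sand soil or foliar treatment at the 1- to 4-leaf stage of plants in peat/vermiculite medium, pots were kept 13-15 days in the greenhouse. Each was then scored visually, 0 meaning no effect and 100 complete control.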

[2] = test system: pigweed (Amaranthus retroflexus); conditions: Amaranthus retroflexus, pre-emergence, 336 h, scale 0 to 100, read-out: Plant response rating, Pigweed
Outline: as §1

corn (Zea mays) = conditions: Zea mays, pre-emergence, 336 h, scale 0 to 100
Outline: as §1

[3] = test system: ragweed (common ragweed, Ambrosia elatior); conditions: Ambrosia artemisiifolia, pre-emergence, 336 h, scale 0 to 100, read-out: Plant response rating, Ragweed
Outline: as §1

[4] = test system: Italian ryegrass (Lolium multiflorum); conditions: Lolium multiflorum, pre-emergence, 336 h, scale 0 to 100, read-out: Plant response rating, Ryegrass, Italian
Outline: as §1

[5] = test system: large (Lg) crabgrass (Digitaria sanguinalis); conditions: Digitaria sanguinalis, pre-emergence, 336 h, scale 0 to 100, read-out: Plant response rating, Crabgrass, Large
Outline: as §1

soybean (Glycine max) = conditions: Glycine max, pre-emergence, scale 0 to 100, read-out: Plant response rating, Soybean
Outline: as §1

[6] = test system: johnsongrass (Sorghum halepense); conditions: Sorghum halepense, pre-emergence, 336 h, scale 0 to 100, read-out: Plant response rating, Johnsongrass
Outline: as §1

[7] = test system: lambsquarters (Chenopodium album); conditions: Chenopodium album, pre-emergence, 336 h, scale 0 to 100, read-out: Plant response rating, Lambsquarters
Outline: as §1

[8] = test system: winter wheat (Triticum aestivum); conditions: Triticum aestivum, pre-emergence, 336 h, scale 0 to 100, read-out: Plant response rating, Wheat
Outline: as §1

[9] = test system: yellow nutsedge (Cyperus esculentus); conditions: Cyperus, pre-emergence, 336 h, scale 0 to 100, read-out: Plant response rating, Nutsedge, Yellow
Outline: as §1

[10] = test system: barnyardgrass (Echinochloa crus-galli); conditions: Echinochloa crus-galli, pre-emergence, read-out: Plant response rating, Barnyardgrass
Outline: as §1

[11] = test system: giant foxtail (Setaria faberii); conditions: Setaria faberi, pre-emergence, 336 h, scale 0 to 100, read-out: Plant response rating, Foxtail, Giant
Outline: as §1

[12] = test system: velvetleaf (Abutilon theophrasti); conditions: Abutilon theophrasti, pre-emergence, scale 0 to 100, read-out: Plant response rating, Velvetleaf
Outline: as §1

## N#Cc1cccc(Oc2ncc(C(F)(F)F)cn2)c1Oc1ncc(Cl)cn1 [Compound 39, 2-[(5-chloro-2-pyrimidinyl)oxy]-3-[[5-(trifluoromethyl)-2-pyrimidinyl]oxy]-benzonitrile]
[1]; 31 g ai/ha, preemergence
  pest or weed control at 31 g/ha: 50%
[1]; 62 g ai/ha, preemergence
  pest or weed control at 62 g/ha: 90%
[1]; 125 g ai/ha, preemergence
  pest or weed control at 125 g/ha: 90%
[1]; Preemergence, 16 g ai/ha
  pest or weed control at 16 g/ha: 0%
[2]; 31 g ai/ha, preemergence
  pest or weed control at 31 g/ha: 98%
[2]; 62 g ai/ha, preemergence
  pest or weed control at 62 g/ha: 100%
[2]; 125 g ai/ha, preemergence
  pest or weed control at 125 g/ha: 100%
[2]; Preemergence, 16 g ai/ha
  pest or weed control at 16 g/ha: 100%
Corn (Zea mays); 31 g ai/ha, preemergence
  Corn plant response rating (crop injury, 0 = no effect, 100 = complete kill) at 31 g/ha: 40%
Corn (Zea mays); 62 g ai/ha, preemergence
  Corn plant response rating (crop injury, 0 = no effect, 100 = complete kill) at 62 g/ha: 45%
Corn (Zea mays); 125 g ai/ha, preemergence
  Corn plant response rating (crop injury, 0 = no effect, 100 = complete kill) at 125 g/ha: 85%
Corn (Zea mays); Preemergence, 16 g ai/ha
  Corn plant response rating (crop injury, 0 = no effect, 100 = complete kill) at 16 g/ha: 5%
[3]; 31 g ai/ha, preemergence
  pest or weed control at 31 g/ha: 40%
[3]; 62 g ai/ha, preemergence
  pest or weed control at 62 g/ha: 65%
[3]; 125 g ai/ha, preemergence
  pest or weed control at 125 g/ha: 85%
[3]; Preemergence, 16 g ai/ha
  pest or weed control at 16 g/ha: 15%
[4]; 31 g ai/ha, preemergence
  pest or weed control at 31 g/ha: 20%
[4]; 62 g ai/ha, preemergence
  pest or weed control at 62 g/ha: 75%
[4]; 125 g ai/ha, preemergence
  pest or weed control at 125 g/ha: 90%
[4]; Preemergence, 16 g ai/ha
  pest or weed control at 16 g/ha: 0%
[5]; 31 g ai/ha, preemergence
  pest or weed control at 31 g/ha: 100%
[5]; 62 g ai/ha, preemergence
  pest or weed control at 62 g/ha: 100%
[5]; 125 g ai/ha, preemergence
  pest or weed control at 125 g/ha: 100%
[5]; Preemergence, 16 g ai/ha
  pest or weed control at 16 g/ha: 100%
Soybean (Glycine max); 31 g ai/ha, preemergence
  plant injury at 31 g/ha: 65%
Soybean (Glycine max); 62 g ai/ha, preemergence
  plant injury at 62 g/ha: 85%
Soybean (Glycine max); 125 g ai/ha, preemergence
  plant injury at 125 g/ha: 95%
Soybean (Glycine max); Preemergence, 16 g ai/ha
  plant injury at 16 g/ha: 35%
[6]; 31 g ai/ha, preemergence
  pest or weed control at 31 g/ha: 65%
[6]; 62 g ai/ha, preemergence
  pest or weed control at 62 g/ha: 85%
[6]; 125 g ai/ha, preemergence
  pest or weed control at 125 g/ha: 100%
[6]; Preemergence, 16 g ai/ha
  pest or weed control at 16 g/ha: 25%
[7]; 31 g ai/ha, preemergence
  pest or weed control at 31 g/ha: 90%
[7]; 62 g ai/ha, preemergence
  pest or weed control at 62 g/ha: 98%
[7]; 125 g ai/ha, preemergence
  pest or weed control at 125 g/ha: 95%
[7]; Preemergence, 16 g ai/ha
  pest or weed control at 16 g/ha: 60%
[8]; 31 g ai/ha, preemergence
  plant injury at 31 g/ha: 0%
[8]; 62 g ai/ha, preemergence
  plant injury at 62 g/ha: 30%
[8]; 125 g ai/ha, preemergence
  plant injury at 125 g/ha: 60%
[8]; Preemergence, 16 g ai/ha
  plant injury at 16 g/ha: 0%
[9]; 31 g ai/ha, preemergence
  pest or weed control at 31 g/ha: 20%
[9]; 62 g ai/ha, preemergence
  pest or weed control at 62 g/ha: 85%
[9]; 125 g ai/ha, preemergence
  pest or weed control at 125 g/ha: 85%
[9]; Preemergence, 16 g ai/ha
  pest or weed control at 16 g/ha: 0%
[10]; 31 g ai/ha, preemergence, scale 0 to 100
  pest or weed control at 31 g/ha: 95%
[10]; 62 g ai/ha, preemergence, scale 0 to 100
  pest or weed control at 62 g/ha: 95%
[10]; 125 g ai/ha, preemergence, scale 0 to 100
  pest or weed control at 125 g/ha: 100%
[10]; Preemergence, 16 g ai/ha, scale 0 to 100 (0 no effect, 100 complete control)
  pest or weed control at 16 g/ha: 65%
[11]; 31 g ai/ha, preemergence
  pest or weed control at 31 g/ha: 95%
[11]; 62 g ai/ha, preemergence
  pest or weed control at 62 g/ha: 100%
[11]; 125 g ai/ha, preemergence
  pest or weed control at 125 g/ha: 100%
[11]; Preemergence, 16 g ai/ha
  pest or weed control at 16 g/ha: 55%
[12]; 31 g ai/ha, preemergence
  pest or weed control at 31 g/ha: 75%
[12]; 62 g ai/ha, preemergence
  pest or weed control at 62 g/ha: 100%
[12]; 125 g ai/ha, preemergence
  pest or weed control at 125 g/ha: 100%
[12]; Preemergence, 16 g ai/ha
  pest or weed control at 16 g/ha: 40%

— patent US20170190671A1, “BIS(ARYL)CATECHOL DERIVATIVES AS HERBICIDES” (E I DU PONT DE NEMOURS AND COMPANY, priority 2014, published 2017)
